{"source": "patent US20250064007A1", "about": "“Self-Fertilization as Methods for Stabilizing Ploidy after Colchicine Treatment Model” (Rev Genomics, Inc., priority 2023, published 2025)", "system": "Cannabis plant", "experiment": "Leaf ploidy by flow cytometry after colchicine treatment of haploid Cannabis plants", "format": "in vivo", "details": "for cells counted diploid / cells counted haploid / cells counted tetraploid: mixaploid (n+2n) state", "excerpt": "In some exemplary embodiments, a colchicine concentration (in water) of 0.25% may be used in addition to 0.5%, 1% and 5%. An issue arises with Cannabis in that not all the cells or tissues of a colchicine treated plant will double their ploidy.\nOn the multi-cellular level, doubling the ploidy of plants requires colchicine treatment applied to the shoot apical meristem (SAM). The SAM is composed of three distinct cell layers: L1 (outermost layer), L2 (middle layer), and L3 (innermost layer). Within the SAM, stem cell division takes place along the peripheral zone where new leaves emerge (Heidstra, 2014). The L1 gives rise to the epidermis or the protective covering of the leaf and stem, L2 to the sub epidermal photosynthetic mesophyll tissue, and L3 to the vascular tissue including the xylem and phloem. L1 and L2 divide anticlinally or […] to each other and thus remain distinct layers (Meyerowitz, 1997). On occasion, a cell in the SAM can divide periclinally whereby the daughter cell invades and acquires the identity one layer out and brings its ploidy with it. This organizational dynamic creates a stable yet mutable developmental path. In fact, the discovery of the stability of different layers within a meristem was discovered by creating a chimera using colchicine on Datura. The researchers were able to follow the developmental lineage of the differently sized cells due to the different ploidy levels within the SAM (Satina, 1940).", "key": {"[1]": {"details": "cultivar Cryptic Lineage Legacy, FIG. 4C"}, "[2]": {"details": "cultivar Herbaceous Sting, FIG. 2C"}, "[3]": {"details": "cultivar Operation Green Harvest Haze, FIG. 3C"}, "[4]": {"details": "cultivar Standing Liberty, FIG. 1C"}}}
{"smiles": "COc1cc2c(c(OC)c1OC)-c1ccc(OC)c(=O)cc1[C@@H](NC(C)=O)CC2", "note": "[Colchicine]", "values": [{"measurement": "ploidy doubling of treated haploid plants", "setting": "colchicine treated haploid Cannabis plants", "value": "very rarely, if ever, achieve a fully diploid state"}, {"measurement": "cells counted diploid", "setting": "[1]", "value": "approximately 20.65%"}, {"measurement": "cells counted haploid", "setting": "[1]", "value": "approximately 17.65%"}, {"measurement": "cells counted tetraploid", "setting": "[1]", "value": "approximately 2.63%"}, {"measurement": "cells counted diploid", "setting": "[2]", "value": "approximately 45.82%"}, {"measurement": "cells counted haploid", "setting": "[2]", "value": "approximately 12.15%"}, {"measurement": "cells counted tetraploid", "setting": "[2]", "value": "approximately 3.93%"}, {"measurement": "cells counted diploid", "setting": "[3]", "value": "approximately 22.8%"}, {"measurement": "cells counted haploid", "setting": "[3]", "value": "approximately 32.4%"}, {"measurement": "cells counted tetraploid", "setting": "[3]", "value": "approximately 3.1%"}, {"measurement": "cells counted diploid", "setting": "[4]", "value": "approximately 49%"}, {"measurement": "cells counted haploid", "setting": "[4]", "value": "approximately 12.48%"}, {"measurement": "cells counted tetraploid", "setting": "[4]", "value": "approximately 4.39%"}]}
